Columns and labels:
[1] = Liver microsomal metabolic stability, mouse; assay type: in vitro ADME; settings: % remaining after 60 min, 1 μM compound, 0.5 mg/mL protein
Description: (§1) (f) Microsomal Stability Assays
(§2) Liver Microsomal Metabolic Stability
(§3) Working stocks were initially diluted to a concentration of 40.0 μM in 0.1 M potassium phosphate buffer (pH 7.4) before addition to the reaction vials. CD-1 mouse (male) or pooled human liver microsomes (Corning Gentest) were utilized at a final concentration of 0.5 mg/mL (protein). Duplicate wells were used for each time point (0 and 60 minutes). Reactions were carried out at 37° C. in an orbital shaker at 175 rpm, and the final DMSO concentration was kept constant at 0.1%. The final volume for each reaction was 100 μL, which includes the addition of an NADPH-Regeneration Solution (NRS) mix. This NRS mix is comprised of glucose 6-phosphate dehydrogenase, NADP+, MgCl2, and glucose 6-phosphate. Upon completion of the 60 minute time point, reactions were terminated by the addition of 2-volumes (200 μL) of ice-cold, acetonitrile containing 0.5% formic acid and internal standard. Samples were then centrifuged at 4,000 rpm for 10 minutes to remove debris and precipitated protein. Approximately 150 μL of supernatant was subsequently transferred to a new 96 well microplate for LC/MS analysis:
(§4) Narrow-window mass extraction LC-MS analysis was performed for all samples in this study using a Waters Xevo quadrupole time-of-flight (QTof) mass spectrometer to determine relative peak areas of test compounds. The percent remaining values are calculated using the following equations: % remaining=(A)/A0×100
(§5) A is area response after incubation
(§6) A0 is area response at initial time point

[2] = as reported; limits use in animal studies; cited from earlier work
[3] = Liver microsomal metabolic stability, human; assay type: in vitro ADME; settings: % remaining after 60 min, 1 μM compound, 0.5 mg/mL protein
Description: as §1, §2, §3, §4, §5, §6

[4] = Microsomal intrinsic clearance assay; assay type: in vitro ADME; settings: pH 7.4, liver microsomes 0.5 mg/mL, species (mouse or human) not given; for microsomal CLint at 1 μM: read-out: Clint (μL/min/mg protein)
Description: CD-1 mouse (male) or pooled human liver microsomes (Corning Gentest) were utilized at a final concentration of 0.5 mg/mL (protein). 12.5 μL of each drug solution were placed into a well of 96 well plate. Reactions were initiated by the addition of activated microsome solutions (500 μL) to drug solutions. Reactions were carried out at 37° C. in an orbital shaker at 175 rpm, and the final DMSO concentration was kept constant at 0.1%. Test compounds were incubated at a final concentration of 1 μM. 50 μL of aliquots of reaction mixtures were quenched by mixing with two parts of stop solution (internal standard containing 0.5% formic acid in acetonitrile) at appropriate time-points and mixed well. Then, solutions were centrifuged at 4000 rpm for 10 min. Supernatants were transferred to a new 96-well plate and analyzed by a Waters Q-TOF mass spectrometer coupled with an UPLC System. Recovery analysis was performed using relative peak areas and narrow window mass extraction.
The ln(% remaining) is plotted against time and the gradient of the line determined. Elimination Constant (k)=−slope Half-life (t½)(min)=ln 2/k=0.693/k V (μL/mg)=volume of incubation (μL)/protein in the incubation (mg) Intrinsic Clearance (CLint)(μL/min/mg protein)=V·0.693/t½=V·k

[5] = system: SuDHL4-3xBCL6-TK-Luc cells; assay: Cell-based BCL6 reporter luciferase assay; settings: Homo sapiens, SU-DHL-4, 48 h, two days
Description: (c) Cell-Based Luciferase Assay:
A BCL6 reporter construct containing three copies of the consensus BCL6 binding site, the TK promoter, and the firefly luciferase gene was stably expressed in SuDHL4 cells after lentivirus infection and selection with Blasticidin. SuDHL4-3×BCL6-TK-Luc cells were seeded into a Viewplate 384-well assay dish at 15,000 cells/well in 25 ul medium (Alpha-MEM high glucose containing 10% FBS, 25 mM HEPES, […] GlutaMAX, 100 ug/ml Normocin, and […] Gentamycin, Invitrogen). A HP D300 digital dispenser was used to dose cells with DMSO or test compounds across a 10-point range of concentrations (high dose of 10 uM), and cultures were grown in a humidified 5% CO2 incubator at 37° C. After two days, plates were removed from incubator and equilibrated to room temperature. An equal volume of neolite reporter gene assay reagent was added to each well, and samples were processed according to manufacturer's instructions (Perkin Elmer). Luminescent signal was measured using an Envision plate reader equipped with a US-Luminescence detector.

[6] = biological target: T1, BCL6 BTB domain (Homo sapiens, UniProt P41182); assay: Surface plasmon resonance (SPR) assay; assay type: binding; settings: Biacore T200, single cycle kinetics
T1 construct: BCL6 BTB domain (biotin-thrombin-BCL6 amino acids 1-129; 17 kd); Thioredoxin-His6-STag (N, cleaved yes); made in house
Description: (b) Surface Plasmon Resonance (SPR) Assay
SPR studies were performed using a Biacore™ T200 instrument (GE Health Sciences Inc.). The BCL6 BTB protein used in the FP assay was biotinylated using the site specific biotinylating enzyme BirA, and then cleaved with TEV protease to produce the BCL6 BTB domain (biotin-thrombin-BCL6 amino acids 1-129; 17 kd) that was use in SPR. This protein was stably captured (1000RU) to streptavidin coupled SA chips (BR-1005-31, GE Health Sciences Inc.) according to the manufacture's protocol. Compounds were dissolved in 100% DMSO at 10 mM and 2-fold serial dilutions were done in 100% DMSO. For SPR analysis the serially titrated compounds were diluted 1/20 into buffer (10 mM HEPES pH7.4, 150 mM NaCl, 0.05% Tween-20, 3 mM EDTA) giving a final concentration of 5% DMSO. The Biacore flow rate was set at 100 ul/min. For KD determinations, single cycle kinetic analysis was performed with an on time of 60 seconds, and an off time of 300 seconds. Curve fitting and KD calculations were done with the Biacore T200 Evaluation software (GE Health Sciences Inc).

[7] = biological target: T2, BTB domain of BCL6 / SMRT BBD peptide (Homo sapiens, UniProt P41182); assay: BCL6-BTB - SMRT peptide inhibition fluorescence polarization (FP) screen; assay type: binding; settings: 1.25 uM BCL6-BTB, 20 nM Bodipy-TMR SMRT peptide probe; lower limit of assay 1 uM
T2 construct: Thioredoxin-His6-STag-TEV-biotinylation-thrombin-BCL6 amino acids 1-129
Description: (a) BCL6-BTB—SMRT Peptide Inhibition Fluorescence Polarization (FP) Screen
Compounds were dissolved in 100% DMSO at 10 mM, assayed fresh, and then stored at −20° C. for repeat studies and future work. The reaction mixture consists of 1.25 uM of the 25 kd BCL6-BTB domain (Thioredoxin-His6-STag-TEV-biotinylation-thrombin-BCL6 amino acids 1-129) plus 20 nM of the peptide probe Ac-GSLVATVKEAGRSIHEIPA (SEQ ID NO: 1) with 16 amino acid peptide from the SMRT BBD (1414-1429) with a Bodipy-TMR fluorescent label on the lysine. […] 20 ul of this assay mixture was added to each well of the 384 well plates with the exception of the control wells that contained no protein (for setting the minimum FP value). Compounds were directly sprayed using an HP D300 Digital Dispenser from 10 mM DMSO stocks onto black 384 well plates (greiner bio-one #781900) in a concentration range from 1 uM to 500 uM (10 points in duplicate). The assay was equilibrated for 1 hour prior to reading the FP values (Ex 540 nm/Em 580 nm) with a Perkin Elmer Envision plate reader. The results were curve fitted and IC50 values were calculated using the BioAssay software from CambridgeSoft.

[8] = system: Karpas422 cells; assay: Tumor cell growth inhibition assay; assay type: cell-based; settings: Homo sapiens, KARPAS-422, 144 h; Karpas422, six days, ATPlite; read-out: GI Karpas EC50
Description: (d) Tumor Cell Growth inhibition Assay:
Karpas422 cells were seeded into a 96-well plate at 2,000 cells/well in 150 ul medium (Alpha-MEM containing 10% FBS, […] Normocin, and […] Gentamycin, Invitrogen). A HP D300 digital dispenser was used to dose cells with DMSO or test compounds across a 10-point range of concentrations (high dose of 5 uM), and cultures were grown in a humidified 5% CO2 incubator at 37° C. After six days, plates were removed from incubator and equilibrated to room temperature. An equal volume of ATPlite assay reagent was added to each well, and samples were processed according to manufacturer's instructions (Perkin Elmer). Luminescent signal was measured using an Envision plate reader equipped with a US-Luminescence detector.

Mouse Liver Microsomes (MLM, % @ 1 h) [1] [%] | Human Liver Microsomes (HLM, % @ 1 h) [3] [%] | half-life at 1 μM [4] [min] | microsomal CLint at 1 μM [4] [µL/min/mg] | IC50 [5] [nM] | Kd [6] [nM] | IC50 [7] [nM] | EC50 [8] [nM] | Compound | bioavailability [2]
13 | 25 | 12 | 112 |  |  |  |  | CNC(=O)COc1cc2cc(Nc3nc(N4C[C@H](C)C[C@H](C)C4)ncc3Cl)ccc2n(C)c1=O [BI-3802, reference compound] | poor bioavailability
8 | 26 | 29 | 48 | 46.6 | 4.56 | ≤ 1000 | 14.1 | [2H]C([2H])([2H])NC(=O)C([2H])([2H])Oc1cc2cc(Nc3nc(N4C[C@H](C)C[C@H](C)C4)ncc3Cl)ccc2n(C)c1=O [Example Ia, 2-((6-((5-chloro-2-((3R,5S)-3,5-dimethylpiperidin-1-yl)pyrimidin-4-yl)amino)-1-methyl-2-oxo-1,2-dihydroquinolin-3-yl)oxy)-N-(methyl-d3)acetamide-2,2-d2] | 
91 | 100 | 82 | 17 | 7.57 | 4.53 | ≤ 900 | 5.04 | [2H]C([2H])([2H])NC(=O)C([2H])([2H])Oc1cc2cc(Nc3nc(N4C[C@@H](C)C(F)(F)[C@@H](C)C4)ncc3Cl)ccc2n(C)c1=O [Ib] | 
